pIC50: −log10 of the molar value. Values joined by “and” are separate entries in the source; they are usually repeats but may differ in a detail not shown here. Identical values can stand only once. Like-named read-outs stand apart in the source and are kept apart here.
How the values were obtained:
[1] = ref Matthews, 2006, Yan et al.; cited from earlier work
[2] = test system: MDCK II cells transiently transfected with hCNT3; assay: MTS cell viability assay in hCNT3 transfected MDCK II cells; assay type: cell-based, canine; settings: 24 h, 250–1000 μM, hCNT3 vs empty vector MDCK II cells
Description: The controls were prepared simultaneously.

[3] = Urinary excretion of ETV and estimated concentration in final urine; assay type: in vivo; settings: 1 mg dose, 24 h-urinary volume of 1 L
hCNT2 = biological target: T1, hCNT2 (Homo sapiens, UniProt O43868); assay: [3H]ETV uptake in hCNT2 transfected cells; settings: 5 min, 37°C
T1 sequence (O43868 1-658): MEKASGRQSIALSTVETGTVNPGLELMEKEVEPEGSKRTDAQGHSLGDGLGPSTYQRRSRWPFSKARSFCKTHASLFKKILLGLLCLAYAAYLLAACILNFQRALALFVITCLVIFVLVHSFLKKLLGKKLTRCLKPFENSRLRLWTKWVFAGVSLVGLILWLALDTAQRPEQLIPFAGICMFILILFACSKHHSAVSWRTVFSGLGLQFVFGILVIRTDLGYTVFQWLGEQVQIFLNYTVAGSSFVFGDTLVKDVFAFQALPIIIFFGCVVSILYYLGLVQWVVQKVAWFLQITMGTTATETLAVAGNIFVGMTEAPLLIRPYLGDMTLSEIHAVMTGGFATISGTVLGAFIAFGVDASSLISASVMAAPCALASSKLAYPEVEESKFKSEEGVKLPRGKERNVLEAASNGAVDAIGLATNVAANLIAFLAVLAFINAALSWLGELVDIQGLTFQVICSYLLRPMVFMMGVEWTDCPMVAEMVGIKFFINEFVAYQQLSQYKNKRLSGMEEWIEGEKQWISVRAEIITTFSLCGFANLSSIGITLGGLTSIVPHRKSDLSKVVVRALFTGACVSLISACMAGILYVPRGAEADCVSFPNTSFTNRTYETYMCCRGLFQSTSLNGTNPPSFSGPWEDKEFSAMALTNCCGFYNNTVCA

hOAT1 [4] = biological target: T2, hOAT1 (Homo sapiens, UniProt Q4U2R8); assay: [3H]ETV uptake in hOAT1 transfected cells; assay type: in vitro ADME; set-up: host or cells: HeLa cells, transient transfection; settings: 5 min, 37°C
T2 sequence (Q4U2R8 1-563): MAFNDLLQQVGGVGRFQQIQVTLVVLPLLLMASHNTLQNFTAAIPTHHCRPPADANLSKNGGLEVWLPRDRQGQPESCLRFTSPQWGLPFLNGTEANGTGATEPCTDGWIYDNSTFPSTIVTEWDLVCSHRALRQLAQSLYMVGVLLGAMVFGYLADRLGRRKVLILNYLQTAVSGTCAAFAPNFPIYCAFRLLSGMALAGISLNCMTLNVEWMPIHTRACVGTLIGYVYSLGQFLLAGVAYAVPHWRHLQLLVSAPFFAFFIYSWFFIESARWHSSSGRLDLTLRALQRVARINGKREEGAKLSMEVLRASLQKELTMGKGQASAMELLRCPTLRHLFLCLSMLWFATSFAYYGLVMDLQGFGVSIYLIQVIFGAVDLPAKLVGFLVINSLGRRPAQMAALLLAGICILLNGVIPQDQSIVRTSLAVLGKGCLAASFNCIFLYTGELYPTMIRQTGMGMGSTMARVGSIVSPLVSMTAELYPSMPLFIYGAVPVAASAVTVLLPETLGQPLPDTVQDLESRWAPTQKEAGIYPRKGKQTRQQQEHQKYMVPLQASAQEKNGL

hOAT1 [5] = biological target: T2, hOAT1; assay: Inhibition by ETV of [3H]adefovir, [3H]tenofovir, [3H]cidofovir accumulation in hOAT1 transfected HeLa cells; assay type: in vitro ADME; set-up: host or cells: HeLa cells, transient transfection; settings: 2 min
Description: Inhibitory transport assays were carried out in 24-well plates as described previously ([Mandikova et al., 2013]). Transport assays in HeLa cells transiently transfected with the hOAT1 expression construct were performed 48 h after transfection. Transport assays in MDCK II cells transiently transfected with hOCT2, hCNT2 or hCNT3 were performed 24 h after transfection. The cultivation medium was removed and the cells were washed with transport solution and preincubated for 10 min at 37°C. The standard radiolabeled substrate or tested radioactive antiviral substance dissolved in transport solution was added to the cells and incubated for 2 min. […] After the designated time period, the incubation was stopped by washing the cells twice with ice-cold solution containing 137 mM NaCl and 10 mM HEPES, pH 7.4. The cells were disintegrated with 0.1 mL of Triton X 0.5% in 100 mM NaOH for 1 h. […] IC50 values were calculated using non-linear regression analysis using GraphPad Prism software (version 6).

Question: For `C=C1[C@H](CO)[C@@H](O)C[C@@H]1n1cnc2c(=O)[nH]c(N)nc21` [ETV, Entecavir], which “Therapeutic concentrations in plasma following regular doses” value [1] is on record?
Answer: below 50 nM

Question: What about the “Effect of hCNT3 expression on cytotoxicity” value [2] of the same compound?
Answer: did not prove any significant increase in cytotoxicity

Question: What about the “Estimated concentration in the final urine” value [3] of the same compound?
Answer: approximately 700 μg/L and ~2.5 μM

Question: What about the “Vmax of [3H]ETV uptake by hCNT2” value (hCNT2) of the same compound?
Answer: 68.88 nmol/mg protein/5 min

Question: What about the “Vmax of [3H]ETV uptake by hOAT1” value (hOAT1 [4]) of the same compound?
Answer: 0.91 nmol/mg protein/5 min

Question: What about the pIC50 (hOAT1 [5]; IC50, inhibition of [3H]cidofovir accumulation by hOAT1, [3H]cidofovir 70 μM) of the same compound?
Answer: 3.16

Question: And the pIC50 (hOAT1 [5]; [3H]adefovir 0.1 μM, read-out: IC50, inhibition of [3H]adefovir accumulation by hOAT1)?
Answer: 3.37

Question: And the pIC50 (hOAT1 [5]; [3H]tenofovir 0.5 μM, read-out: IC50, inhibition of [3H]tenofovir accumulation by hOAT1)?
Answer: 3.15
